Target: human P2X3 receptor (Homo sapiens (Human), UniProt P56373)
Assay: P2X3 receptor inhibition, ATP-evoked Fluo-3 calcium fluorescence (FDSS 3000)
Assay type: cell-based
Conditions: C6BU-1 cell transfected with human P2X3 receptor gene; ATP-evoked Fluo-3 fluorescence
Experimental: Stably expressing cell line (C6BU-1 cell transfected with human P2X3 receptor gene (GenBank accession number Y07683)) was used. The cells were seeded in a 96-well microtiter plate at a concentration of 8000 cells/well and cultured in the medium (8.3% fetal bovine serum, 8.3% horse serum, 1% antibiotic and antifungal in DMEM) for one day at 37° C. under 5% carbon dioxide atmosphere. The medium was replaced with 4 μM Fluo-3-AM solution (pH7.5) containing 20 mM HEPES, 137 mM NaCl, 2.7 mM KCl, 0.9 mM MgCl2, 5.0 mM CaCl2, 5.6 mM D-glucose, 2.5 mM probenecid, 10% BSA, and 0.08% Pluronic F-127, and incubated at 37° C. under 5% dioxide carbon atmosphere for one hour. The plate was washed with washing buffer (20 mM HEPES, 137 mM NaCl, 2.7 mM KCl, 0.9 mM MgCl2, 5.0 mM CaCl2, 5.6 mM D-glucose, 2.5 mM probenecid, pH7.5), and each well was added with 40 μL of this buffer. The plate was placed in High-Throughput Screening System FDSS 3000 (Hamamatsu Photonics K.K.). Measurement of fluorescence intensity by FDSS 3000 was started, and 40 μL of DMSO solutions containing different concentrations of the test compound as prepared by dilution with dilution buffer (20 mM HEPES, 137 mM NaCl, 2.7 mM KCl, 0.9 mM MgCl2, 5.0 mM CaCl2, 5.6 mM D-glucose, 2.5 mM probenecid, 0.1% Pluronic F-127, pH7.5) were dispensed to each well through the built-in automatic dispenser. Five minutes after, 40 nM ATP solution (50 μL) prepared by dilution with the dilution buffer was dispensed through the built-in automatic dispenser, and the measurement of fluorescence intensity was continued for 3 min. For each well, the specific maximum fluorescence intensity was calculated as the ratio of the maximum fluorescence intensity after addition of the ATP solution to the fluorescence intensity at the starting of the measurement. […] FDSS software (Hamamatsu Photonics K.K.) was used for calculation of the specific maximum fluorescence intensity. IC50 was calculated using Microsoft™ Excel™ (Microsoft Corporation) and XLfit™ (ID Business Solutions Ltd.).

Chain of human P2X3 receptor (P56373 whole entry): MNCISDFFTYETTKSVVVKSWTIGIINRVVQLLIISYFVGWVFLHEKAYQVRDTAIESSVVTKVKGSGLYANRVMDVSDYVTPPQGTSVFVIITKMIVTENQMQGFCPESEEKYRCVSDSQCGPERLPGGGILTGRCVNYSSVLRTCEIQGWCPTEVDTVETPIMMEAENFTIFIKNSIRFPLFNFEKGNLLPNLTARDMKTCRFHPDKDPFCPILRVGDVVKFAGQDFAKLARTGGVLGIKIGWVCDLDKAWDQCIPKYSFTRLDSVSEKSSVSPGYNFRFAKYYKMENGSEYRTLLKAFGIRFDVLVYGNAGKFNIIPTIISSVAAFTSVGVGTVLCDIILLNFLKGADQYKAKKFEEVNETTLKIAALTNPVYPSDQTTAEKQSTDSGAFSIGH

| IC50 [nM] | Structure (SMILES) |
| --- | --- |
| 32 | CCOC(=O)c1ccc(N2C(=O)C(O)=C(C(=O)C(C)(C)C)C2c2ccccc2OC)cc1 (centres unmarked) [Compound I-001] |
| 24 | CCC(CC)C1C(C(=O)c2ccc(C(=O)N(C)C)cc2)=C(O)C(=O)N1c1ccc(-c2noc(C)n2)cc1 (centres unmarked) [Compound I-002] |
| 40 | CCC(CC)C1C(C(=O)c2ccc(C(=O)N(C)C)cc2)=C(O)C(=O)N1c1ccc(-c2ccon2)cc1 (centres unmarked) [Compound I-003] |
| 12 | CCNC(=O)c1ccc(C(=O)C2=C(O)C(=O)N(c3ccc(-c4ccon4)cc3)C2C(CC)CC)cc1 (centres unmarked) [Compound I-004] |
| 247 | CC(C)(C)C(=O)C1=C(O)C(=O)N(c2ccc(-c3ccon3)cc2)C1c1cccc[n+]1[O-] (centres unmarked) [Compound I-005] |
| 27 | CCCC(CCC)C1C(C(=O)c2ccc(CO)cc2)=C(O)C(=O)N1c1ccc(-c2ccon2)cc1 (centres unmarked) [Compound I-006] |
| 100 | CCCCC(CCCC)C1C(C(=O)c2ccc(CO)cc2)=C(O)C(=O)N1c1ccc(-c2ccon2)cc1 (centres unmarked) [Compound I-007] |
| 14 | CCC(CC)C1C(C(=O)c2ccc(C(=O)NCCO)cc2)=C(O)C(=O)N1c1ccc(-c2ccon2)cc1 (centres unmarked) [Compound I-008] |
| 14 | COc1ccc(C(=O)C2=C(O)C(=O)N(c3nc4ccc(OC)cc4s3)C2C2CCCCC2)cc1 (centres unmarked) [Compound I-009] |
| 595 | COc1ccccc1C1C(C(=O)C(F)(F)F)=C(O)C(=O)N1c1ccc(-c2ccon2)cc1 (centres unmarked) [Compound I-010] |
| 270 | COc1cc(F)ccc1C1C(C(=O)C(C)(C)C)=C(O)C(=O)N1c1ccc(-c2ccon2)cc1 (centres unmarked) [Compound I-011] |
| 340 | COc1ccc(C(=O)C2=C(O)C(=O)N(c3ccc4[nH]ccc4c3)C2C2CCCCC2)cc1 (centres unmarked) [Compound I-012] |
| 134 | COc1ccc(C(=O)C2=C(O)C(=O)N(c3ccc(-c4cccn4C)cc3)C2C2CCCCC2)cc1 (centres unmarked) [Compound I-014] |
| 12 | COc1ccc(C(=O)C2=C(O)C(=O)N(c3ccc(-c4ccco4)cc3)C2C2CCCCC2)cc1 (centres unmarked) [Compound I-015] |
| 79 | O=C(C1=C(O)C(=O)N(c2ccc(-c3ccon3)cc2)C1C1CCCCC1)c1ccc(Br)cc1 (centres unmarked) [Compound I-016] |
| 132 | CC(C)(C)C(=O)C1=C(O)C(=O)N(c2ccc(-c3ccon3)cc2)C1c1ccccc1OC(F)(F)F (centres unmarked) [Compound I-019] |
| 21 | COc1ccc(C(=O)C2=C(O)C(=O)N(c3ccc(-c4nc(C)no4)cc3)C2C2CCCCC2)cc1 (centres unmarked) [Compound I-020] |
| 382 | COc1ccc(F)cc1C1C(C(=O)C(C)(C)C)=C(O)C(=O)N1c1ccc(-c2ccon2)cc1 (centres unmarked) [Compound I-021] |
| 339 | O=C(C1=C(O)C(=O)N(c2ccc(-c3ccon3)cc2)C1C1CCCCC1)c1ccc(OC(F)(F)F)cc1 (centres unmarked) [Compound I-026] |
| 40 | COc1ccc(C(=O)C2=C(O)C(=O)N(c3ccc(-c4cc(C)no4)cc3)C2c2ccccc2OC)cc1 (centres unmarked) [Compound I-027] |
| 75 | COc1ccc(C(=O)C2=C(O)C(=O)N(c3ccc(C4=NCCS4)cc3)C2c2ccccc2OC)cc1 (centres unmarked) [Compound I-028] |

| IC50 [nM] | Structure (SMILES) |
| --- | --- |
| 160 | COc1ccc(C(=O)C2=C(O)C(=O)N(c3ccc(-c4nccs4)cc3)C2c2ccccc2OC)cc1 (centres unmarked) [Compound I-029] |
| 53 | COc1ccc(C(=O)C2=C(O)C(=O)N(c3ccc(-c4noc(C)n4)cc3)C2c2ccccc2OC)cc1 (centres unmarked) [Compound I-030] |
| 700 | COc1ccccc1C1C(C(=O)C2(CO)CCCCC2)=C(O)C(=O)N1c1ccc(-c2ccon2)cc1 (centres unmarked) [Compound I-031] |
| 160 | COc1ccc(C(=O)C2=C(O)C(=O)N(c3ccc(-c4nc(C)no4)cc3)C2c2ccccc2OC)cc1 (centres unmarked) [Compound I-032] |
| 53 | COc1ccc(C(=O)C2=C(O)C(=O)N(c3ccc(-c4nnc(C)o4)cc3)C2c2ccccc2OC)cc1 (centres unmarked) [Compound I-033] |
| 700 | COc1ccc(C(=O)C2=C(O)C(=O)N(c3ccc(-c4cccnc4)cc3)C2c2ccccc2OC)cc1 (centres unmarked) [Compound I-034] |
| 954 | COc1ccccc1C1C(C(=O)C(C)(C)C)=C(O)C(=O)N1c1ccc(C(C)C)cc1 (centres unmarked) [Compound I-037] |
| 926 | COc1ccc2sc(N3C(=O)C(O)=C(C(=O)C(C)(C)C)C3c3ccccc3OC)nc2c1 (centres unmarked) [Compound I-038] |
| 12 | COc1ccc(C(=O)C2=C(O)C(=O)N(c3ccc(-c4ccoc4)cc3)C2C2CCCCC2)cc1 (centres unmarked) [Compound I-039] |
| 468 | CCCc1ccc(N2C(=O)C(O)=C(C(=O)C(C)(C)C)C2c2ccccc2OC)cc1 (centres unmarked) [Compound I-044] |
| 580 | COc1ccccc1C1C(C(=O)C(C)(C)C)=C(O)C(=O)N1c1ccc(C(C)(C)C)cc1 (centres unmarked) [Compound I-046] |
| 221 | COc1ccccc1C1C(C(=O)C(C)(C)C)=C(O)C(=O)N1c1ccc(SC(F)(F)F)cc1 (centres unmarked) [Compound I-047] |
| 642 | COCc1ccccc1C1C(C(=O)C(C)(C)C)=C(O)C(=O)N1c1ccc(-c2cc(C)no2)cc1 (centres unmarked) [Compound I-050] |
| 277 | COCc1ccccc1C1C(C(=O)C(C)(C)C)=C(O)C(=O)N1c1ccc(-c2noc(C)n2)cc1 (centres unmarked) [Compound I-051] |
| 187 | COc1ccccc1C1C(C(=O)C(C)(C)C)=C(O)C(=O)N1c1ccc(SC)cc1 (centres unmarked) [Compound I-052] |
| 596 | CC(C)(C)C(=O)C1=C(O)C(=O)N(c2ccc(-c3ccon3)cc2)C1c1cccc2c1OCO2 (centres unmarked) [Compound I-055] |
| 159 | CSc1ccccc1C1C(C(=O)C(C)(C)C)=C(O)C(=O)N1c1ccc(-c2ccon2)cc1 (centres unmarked) [Compound I-057] |
| 260 | CCOc1ccccc1C1C(C(=O)C(C)(C)C)=C(O)C(=O)N1c1ccc(-c2ccon2)cc1 (centres unmarked) [Compound I-059] |
| 137 | CC(C)(C)C(=O)C1=C(O)C(=O)N(c2ccc(-c3ccon3)cc2)C1c1ccccc1OC(F)F (centres unmarked) [Compound I-064] |
| 434 | COc1ncccc1C1C(C(=O)C(C)(C)C)=C(O)C(=O)N1c1ccc(SC)cc1 (centres unmarked) [Compound I-066] |
| 305 | COc1ccccc1C1C(C(=O)C(C)(C)CO)=C(O)C(=O)N1c1ccc(SC)cc1 (centres unmarked) [Compound I-068] |

| IC50 [nM] | Structure (SMILES) |
| --- | --- |
| 519 | CN(C)c1ccccc1C1C(C(=O)C(C)(C)C)=C(O)C(=O)N1c1ccc(-c2ccon2)cc1 (centres unmarked) [Compound I-070] |
| 352 | COc1ccccc1C1C(C(=O)CC(C)(C)C)=C(O)C(=O)N1c1ccc(-c2ccon2)cc1 (centres unmarked) [Compound I-072] |
| 48 | COc1ccccc1C1C(C(=O)C(C)(C)C)=C(O)C(=O)N1c1ccc(-c2ccoc2)cc1 (centres unmarked) [Compound I-077] |
| 23 | COc1ccccc1C1C(C(=O)C(C)(C)C)=C(O)C(=O)N1c1ccc(-c2cccs2)cc1 (centres unmarked) [Compound I-079] |
| 151 | CSc1ccc(N2C(=O)C(O)=C(C(=O)C(C)(C)C)C2c2ccccc2OCCO)cc1 (centres unmarked) [Compound I-081] |
| 650 | CC(C)(C)C(=O)C1=C(O)C(=O)N(c2ccc(-c3nccs3)cc2)C1c1ccccc1OCCO (centres unmarked) [Compound I-082] |
| 48 | CC(C)(C)C(=O)C1=C(O)C(=O)N(c2ccc(-c3ccco3)cc2)C1c1ccccc1OCCO (centres unmarked) [Compound I-085] |
| 341 | CCc1ccccc1C1C(C(=O)C(C)(C)C)=C(O)C(=O)N1c1ccc(-c2ccon2)cc1 (centres unmarked) [Compound I-091] |
| 92 | COc1ccccc1C1C(C(=O)C(C)(C)C)=C(O)C(=O)N1c1ccc(-c2ccco2)cc1 (centres unmarked) [Compound I-092] |
| 756 | COc1ccccc1C1C(C(=O)C(C)(C)C)=C(O)C(=O)N1c1ccc(-c2ccoc2)nc1 (centres unmarked) [Compound I-093] |
| 301 | COc1ccccc1C1C(C(=O)C(C)(C)C)=C(O)C(=O)N1c1ccc(-c2cc[nH]c2)cc1 (centres unmarked) [Compound I-094] |
| 195 | COc1ccccc1C1C2C(=O)C(C)(C)COC2(O)C(=O)N1c1ccc(-c2ccsc2)cn1 (centres unmarked) [Compound I-095] |
| 370 | COCCOc1ccccc1C1C(C(=O)C(C)(C)C)=C(O)C(=O)N1c1ccc(-c2ccon2)cc1 (centres unmarked) [Compound I-098] |
| 134 | COc1ccccc1C1C(C(=O)C(C)(C)C)=C(N)C(=O)N1c1ccc(-c2ccon2)cc1 (centres unmarked) [Compound I-102] |
| 355 | CC(C)(C)C(=O)C1=C(O)C(=O)N(c2ccc(-c3ccon3)cc2)C1c1ccccc1OCC#N (centres unmarked) [Compound I-103] |
| 424 | CC(C)(C)C(=O)C1=C(O)C(=O)N(c2ccc(-c3ccsc3)cc2)C1c1cccc[n+]1[O-] (centres unmarked) [Compound I-104] |
| 97 | CC(C)Oc1ccccc1C1C(C(=O)C(C)(C)C)=C(O)C(=O)N1c1ccc(-c2ccon2)cc1 (centres unmarked) [Compound I-105] |
| 192 | COc1ncccc1C1C(C(=O)C(C)(C)C)=C(O)C(=O)N1c1ccc(-c2ccsc2)nc1 (centres unmarked) [Compound I-108] |
| 624 | CC(C)(C)C(=O)C1=C(O)C(=O)N(c2ccc(-c3ccon3)cc2)C1c1ccccc1S(C)(=O)=O (centres unmarked) [Compound I-111] |
| 388 | CC(C)(C)C(=O)C1=C(O)C(=O)N(c2ccc(-c3cccs3)cc2)C1c1cccc[n+]1[O-] (centres unmarked) [Compound I-112] |

From patent US8575197B2, “Pyrolinone derivative and pharmaceutical composition comprising the same” (Shionogi & Co., Ltd., priority 2008, dated 2013)
